Type in all cases: biochemical
One assay concerns the target PDE1A (Homo sapiens (Human), UniProt P54750). As to the kind of experiment: PDE1 inhibition assay (PDE1A), SPA with tritium labelled cAMP. The conditions noted are these: for inhibition at 2 µM: read-out: PDE1A, % inhibition at 2 μM. On the procedure: Reactions were initiated by addition of the cyclic nucleotide substrate, and reactions were allowed to proceed for 1 h at room temperature before being terminated through mixing with 20 μL (0.2 mg) yttrium silicate SPA beads (PerkinElmer).

A further assay has as its target PDE9 (Homo sapiens (Human), UniProt O76083). As to the kind of experiment: PDE9 inhibition assay, SPA with 3H-cAMP. On the procedure: A PDE9 assay may for example, be performed as follows: The assay is performed in 60 μL samples containing a fixed amount of the relevant PDE enzyme (sufficient to convert 20-25% of the cyclic nucleotide substrate), a buffer (50 mM HEPES pH 7.6; 10 mM MgCl2; 0.02% Tween20), 0.1 mg/mi BSA, 225 pCi of ^3H-labelled cyclic nucleotide substrate, tritium labeled cAMP to a final concentration of 5 nM and varying amounts of inhibitors. Reactions are initiated by addition of the cyclic nucleotide substrate, and reactions are allowed to proceed for one hr at room temperature before being terminated through mixing with 15 μL 8 mg/mL yttrium silicate SPA beads (Amersham). The beads are allowed to settle for one hr in the dark before the plates are counted in a Wallac 1450 Microbeta counter.
In the context of the present invention the assay was performed in 60 μL assay buffer (50 mM HEPES pH 7.6; 10 mM MgCl2; 0.02% Tween20) containing enough PDE9 to convert 20-25% of 10 nM ^3H-cAMP and varying amounts of inhibitors. Following a 1 hr incubation the reactions were terminated by addition of 15 μL 8 mg/mL yttrium silicate SPA beads (Amersham). The beads were allowed to settle for one hr in the dark before the plates were counted in a Wallac 1450 Microbeta counter.

Another assay concerns the target PDE1C (Homo sapiens (Human), UniProt Q14123). As to the kind of experiment: PDE1 inhibition assay (PDE1C), SPA with tritium labelled cAMP. On the procedure:
(§1) Reactions were initiated by addition of the cyclic nucleotide substrate, and reactions were allowed to proceed for 1 h at room temperature before being terminated through mixing with 20 μL (0.2 mg) yttrium silicate SPA beads (PerkinElmer). The beads were allowed to settle for 1 h in the dark before the plates were counted in a Wallac 1450 Microbeta counter.

A further assay has as its target PDE1B (Homo sapiens (Human), UniProt Q01064). As to the kind of experiment: PDE1 inhibition assay (PDE1B), SPA with tritium labelled cAMP. Here is the method: as §1

Chain of PDE1B (Q01064 whole entry): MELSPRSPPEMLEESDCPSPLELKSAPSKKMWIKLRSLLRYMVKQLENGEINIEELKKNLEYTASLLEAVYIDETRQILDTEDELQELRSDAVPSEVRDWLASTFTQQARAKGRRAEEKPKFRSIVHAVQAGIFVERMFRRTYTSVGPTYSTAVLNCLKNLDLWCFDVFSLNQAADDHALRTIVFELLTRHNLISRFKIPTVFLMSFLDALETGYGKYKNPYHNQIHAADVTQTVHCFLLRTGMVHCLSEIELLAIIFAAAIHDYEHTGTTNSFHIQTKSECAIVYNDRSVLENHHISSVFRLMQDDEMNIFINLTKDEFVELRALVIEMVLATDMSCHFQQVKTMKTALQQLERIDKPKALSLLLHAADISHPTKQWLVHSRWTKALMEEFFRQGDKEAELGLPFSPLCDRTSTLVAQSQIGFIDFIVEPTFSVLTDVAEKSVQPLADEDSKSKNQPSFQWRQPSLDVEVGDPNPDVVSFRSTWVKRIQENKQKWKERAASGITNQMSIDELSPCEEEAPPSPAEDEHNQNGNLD
Chain of PDE1C (Q14123 whole entry): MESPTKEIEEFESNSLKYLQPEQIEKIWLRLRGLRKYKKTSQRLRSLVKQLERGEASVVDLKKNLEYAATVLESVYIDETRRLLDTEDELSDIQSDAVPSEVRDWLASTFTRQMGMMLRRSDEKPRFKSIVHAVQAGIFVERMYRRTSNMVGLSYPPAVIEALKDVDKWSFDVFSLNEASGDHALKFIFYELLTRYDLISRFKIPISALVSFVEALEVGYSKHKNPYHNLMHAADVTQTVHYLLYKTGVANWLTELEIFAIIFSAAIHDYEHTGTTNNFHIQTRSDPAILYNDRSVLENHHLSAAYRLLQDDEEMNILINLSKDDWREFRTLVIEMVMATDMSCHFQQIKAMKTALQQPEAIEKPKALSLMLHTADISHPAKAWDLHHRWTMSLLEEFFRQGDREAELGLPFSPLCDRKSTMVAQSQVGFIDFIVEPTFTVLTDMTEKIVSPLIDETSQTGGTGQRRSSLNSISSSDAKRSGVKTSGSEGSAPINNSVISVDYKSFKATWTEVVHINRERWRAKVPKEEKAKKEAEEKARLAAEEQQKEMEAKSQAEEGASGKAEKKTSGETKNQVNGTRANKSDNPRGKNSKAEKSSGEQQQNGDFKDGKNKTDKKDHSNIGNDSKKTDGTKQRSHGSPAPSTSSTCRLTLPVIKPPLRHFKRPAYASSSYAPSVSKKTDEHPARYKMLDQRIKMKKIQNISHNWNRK
Chain of PDE9 (O76083 whole entry): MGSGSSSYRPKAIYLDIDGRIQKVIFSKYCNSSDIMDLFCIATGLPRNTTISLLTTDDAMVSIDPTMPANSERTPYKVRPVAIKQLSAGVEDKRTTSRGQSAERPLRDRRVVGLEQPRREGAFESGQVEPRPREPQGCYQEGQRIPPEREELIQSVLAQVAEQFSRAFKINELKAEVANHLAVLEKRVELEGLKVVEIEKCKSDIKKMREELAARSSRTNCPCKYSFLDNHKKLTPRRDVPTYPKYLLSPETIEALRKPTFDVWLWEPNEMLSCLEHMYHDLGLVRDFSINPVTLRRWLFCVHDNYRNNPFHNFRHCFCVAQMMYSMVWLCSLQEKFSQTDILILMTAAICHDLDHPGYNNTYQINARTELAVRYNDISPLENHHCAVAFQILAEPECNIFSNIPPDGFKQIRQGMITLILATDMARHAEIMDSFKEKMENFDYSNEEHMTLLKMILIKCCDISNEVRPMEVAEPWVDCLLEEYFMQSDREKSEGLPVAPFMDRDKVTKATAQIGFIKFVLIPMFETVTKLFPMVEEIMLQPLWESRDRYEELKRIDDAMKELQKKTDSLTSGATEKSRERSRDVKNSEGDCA
Chain of PDE1A (P54750 whole entry): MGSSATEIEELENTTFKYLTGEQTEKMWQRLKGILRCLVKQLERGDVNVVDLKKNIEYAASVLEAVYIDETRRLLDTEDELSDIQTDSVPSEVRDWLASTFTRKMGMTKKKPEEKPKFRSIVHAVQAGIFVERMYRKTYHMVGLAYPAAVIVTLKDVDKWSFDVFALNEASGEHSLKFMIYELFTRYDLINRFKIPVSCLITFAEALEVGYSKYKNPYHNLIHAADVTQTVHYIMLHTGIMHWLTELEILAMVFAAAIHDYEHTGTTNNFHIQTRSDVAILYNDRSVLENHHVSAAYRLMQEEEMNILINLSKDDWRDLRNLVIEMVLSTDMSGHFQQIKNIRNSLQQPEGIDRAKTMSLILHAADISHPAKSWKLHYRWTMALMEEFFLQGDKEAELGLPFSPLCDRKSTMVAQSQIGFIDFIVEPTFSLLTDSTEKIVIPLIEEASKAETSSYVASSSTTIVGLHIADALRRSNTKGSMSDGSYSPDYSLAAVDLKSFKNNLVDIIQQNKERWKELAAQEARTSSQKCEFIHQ

One may read the inhibition as the percentage by which the read-out fell short of the control. Regarding `CCc1ccccc1Cn1c(C)cn2c(C3CCOCC3)ncc2c1=O` [Example 49, 7-(2-ethylbenzyl)-6-methyl-3-(tetrahydro-2H-pyran-4-yl)imidazo[1,5-a]pyrazin-8(7H)-one], the inhibition at 2 µM on PDE1A worked out at 44%.

The IC50 is the concentration at which inhibition is half-maximal. On to `Cc1cn2c([C@H]3C[C@@H]3F)ncc2c(=O)n1Cc1cccc(F)c1` (single isomer, unassigned; isomer 2) [37, isomer 2], for which, at PDE9, the “% inhibition of PDE9 at 10 microM” value is 13%. On PDE1C, the IC50 turned out to be 55 nM.

Consider `Cc1cn2c([C@@H]3C[C@H]3F)ncc2c(=O)n1Cc1cccc(F)c1` (single isomer, unassigned; isomer 1) [38, isomer 1], for which the “% inhibition of PDE9 at 10 microM” value on PDE9 is −1%.

With `Cc1cn2c([C@H]3C[C@H]3F)ncc2c(=O)n1Cc1cccc(F)c1` (single isomer, unassigned; isomer 2) [38, isomer 2], the “% inhibition of PDE9 at 10 microM” value on PDE9 amounted to 2%. Moreover, half-maximal inhibition at PDE1C (IC50) was put at 153 nM.

With `Cc1cn2c([C@@H]3C[C@@H]3F)ncc2c(=O)n1Cc1cccc(F)c1` (single isomer, unassigned; isomer 1) [37, isomer 1], the “% inhibition of PDE9 at 10 microM” value at PDE9 was −2%. Also, the IC50 at PDE1C was 345 nM.

On to `Cc1cn2c(N3CCC4OCC[C@@H]43)ncc2c(=O)n1Cc1cccc(F)c1` (single isomer, unassigned; isomer 2) [99, isomer 2], for which the “% inhibition of PDE9 at 10 microM” value at PDE9 came out at 6%. The “PDE1A, % inhibition at 10 μM” value at PDE1A (at 10 μM) worked out at 47%. In addition, the results for the IC50 on PDE1C and at PDE1B were 119 nM and 760 nM, respectively.

In turn, `COc1ccc(Cn2c(C)cn3c([C@H]4CCO[C@@H]4C)ncc3c2=O)cc1` (single isomer, unassigned; isomer 3) [55, isomer 3] gave a half-maximal inhibitory concentration (IC50) against PDE1B of 3 nM.

Turning to `Cc1cn2c(C3CCOCC3)ncc2c(=O)n1Cc1cccc(C#N)c1` [Example 45, 3-((6-methyl-8-oxo-3-(tetrahydro-2H-pyran-4-yl)imidazo[1,5-a]pyrazin-7(8H)-yl)methyl)benzonitrile], the inhibition at 2 µM at PDE1A amounted to 64%.

With `Cc1cn2c(N3CCC4OCC[C@H]43)ncc2c(=O)n1Cc1cccc(F)c1` (single isomer, unassigned; isomer 1) [99, isomer 1], the “% inhibition of PDE9 at 10 microM” value at PDE9 is listed as 9%. Besides, the figures for the IC50 at PDE1A, at PDE1C and at PDE1B were 241 nM, 27 nM and 134 nM, respectively.
